According to ChEMBL document CHEMBL3988181, “GlaxoSmithKline Published Kinase Inhibitor Set 2 Onchocerca lienalis Screening Data”:

Assay: GSK PKIS2: Screen against O. lienalis microfilariae, single point, at 3.1uM to assess reduction in motility. Compounds were also tested for cytotoxicity against Rhesus Monkey LLCMK2 cells.
Type: functional, Onchocerca lienalis, LLC-MK2
Conditions: CELL_LINE LLCMK2; CELL_SUPPLIER ECACC; CONC 3.1 uM; ORGANISM_SUPPLIER Extracted from peri-umbilical skin obtained from naturally infected cattle in the UK; temperature 37 degree C

SMILES	MOTILITY REDUCTION/CYTOTOXICITY [%]
N#Cc1ccc(-c2cc(-c3c[nH]nc3-c3ccccn3)ccn2)cc1	0
CSc1ccc(-c2nc3n(c2-c2ccncc2)CCC3)cc1	0
CSc1nn2c(=O)cc(N3CCOCC3)nc2n1Cc1cccc(Cl)c1Cl	46.7
COc1ccc(S(=O)(=O)NC2CCN(c3cc(C)nc(Nc4cccc(C#N)c4)n3)CC2)cc1	0
COc1ccc(Nc2nccc(N3CCC(NC(=O)c4cccc(NC(C)=O)c4)C3)n2)cc1 (configuration not stated)	0
Cc1ccccc1CC(=O)N1CCc2cc(-c3cn(C)c4ncnc(N)c34)ccc21	33.4
COc1cccc(-c2cc(-c3c[nH]nc3-c3ccccn3)ccn2)c1	0
O=C(Nc1n[nH]c2cc(-c3ccsc3)ccc12)C1CC1	0
COc1ccc(Nc2nccc(N3CCC(NC(=O)c4cccc(C#N)c4)C3)n2)cc1 (configuration not stated)	0
COC(=O)c1cccc(NC(=O)NC2CCN(c3ccnc(Nc4ccc(F)cc4)n3)C2)c1 (configuration not stated)	0
O=c1[nH]cc(-c2ccc(N3CCOCC3)cc2)c2sc(-c3cn[nH]c3)cc12	0
Fc1ccccc1COc1ccc(Nc2ncnc3ccc(-c4nnc(C(F)(F)F)o4)cc23)cc1Cl	0
COc1cc2c(Nc3ccc(NC(=O)c4ccccc4)cc3)ncnc2cc1OCCCN1CCOCC1	0
COc1cccc(C2=C(N(C)c3ccccc3)C(=O)NC2=O)c1	0
O=C(NCCNc1ccnc(NCc2ccc(F)cc2)n1)c1cc2ccccc2s1	0
COc1cc2ncn(-c3cc(OCC4CCCO4)c(C(N)=O)s3)c2cc1OC (configuration not stated)	46.7
Nc1ncnc2c1ncn2-c1ccc(Cl)cc1	60
COc1cc2ncnc(Nc3cccc(Br)c3)c2cc1OC	60
NCC(NCc1ccc(-c2ccnc3[nH]ccc23)s1)c1ccccc1 (configuration not stated)	0
FC(F)(F)c1ccc(-c2nn3ncccc3c2-c2ccnc(Nc3cccc(C(F)(F)F)c3)n2)cc1	0
Nc1nccc(-c2c(-c3ccc(F)cc3)ncn2C2CCN(Cc3ccccc3)CC2)n1	0

SMILES	MOTILITY REDUCTION/CYTOTOXICITY [%]
CCn1c(-c2nonc2N)nc2c(C#CC(C)(C)O)nc(OCCN)cc21	0
CC(C)c1nc(-c2cccc(NS(=O)(=O)c3c(F)cccc3F)c2F)c(-c2ccnc(Nc3ccc(N4CCOCC4)nc3)n2)s1	93.4
COc1cc(Nc2nccc(N3CCC(NC(=O)C4COc5ccccc5O4)C3)n2)cc(OC)c1OC (configuration not stated)	0
c1ccc(-c2ccc3c(Nc4ccc5[nH]ncc5c4)ccnc3c2)nc1	60
Nc1nccc(-c2ccc3c(N)n[nH]c3c2)n1	0
NC(=O)c1cc(-c2ccccc2)cc2c(C3CCNCC3)c[nH]c12	0
CC(=O)Nc1ccc(COc2ccc(Nc3ccnc4cc(-c5ccccn5)ccc34)cc2)cc1	100
Fc1cc(Cl)ccc1Nc1ccnc2cc(-c3ccc(CN4CCCCC4)o3)ccc12	16.7
Cc1cccc(Nc2nc(N[C@H]3CCNC3)ncc2C(N)=O)c1	26.7
c1ccc(-c2n[nH]cc2Nc2ccnc3ccccc23)nc1	100
CN(c1ccc(NC(=O)Nc2cccc(Cl)c2)cc1)c1ccnc(N)n1	13.4
Cc1ccccc1COc1cc(-n2cnc3cc(Cl)ccc32)sc1C(N)=O	0
NC(=O)c1sc(-n2cnc3ccccc32)cc1OCc1ccccc1F	20
C=CC(=O)Nc1cc2c(Nc3ccc(F)c(Cl)c3)ncnc2cc1OCCCN1CCOCC1 [CANERTINIB]	0
CCn1cnc2c(NCc3ccccc3)ncnc21	0
Nc1n[nH]c2nnc(-c3ccccc3)cc12	0
CN(C1=C(c2ccccc2)C(=O)NC1=O)c1ccccc1	0
Cc1ccc(C(=O)NC2CCCC2)cc1-c1ccc(C(=O)NCC2CC2)cc1	20
NC[C@H](CC1CCCCC1)NC(=O)c1ccc(-c2ccnc3[nH]ccc23)s1	66.7
Cc1ccc(NC(=O)Nc2ccc(Cl)c(C(F)(F)F)c2)cc1-c1ccc(C(=O)Nc2ccncc2)cc1	40
NCC(NC(=O)c1cc(-c2ccccc2)c(-c2ccnc3[nH]ccc23)s1)c1ccccc1 (configuration not stated)	0

SMILES	MOTILITY REDUCTION/CYTOTOXICITY [%]
Cc1nnc(-c2ccc(C)c(-c3ccc(C(=O)O)cc3)c2)o1	33.4
CCn1c(-c2nonc2N)nc2cncc(CNC3CCNCC3)c21	0
Cc1cccc(Cn2ccn3c(=O)cc(N4CCOCC4)nc23)c1	0
Cc1ccc(C(=O)Nc2ccc(Nc3ccnc4cc(-c5nccs5)ccc34)cc2O)cc1	0
N#CCc1ccc(Nc2nccc(Nc3ccc(Oc4ccccc4)cc3)n2)cc1	20
COc1cccc(NC(=O)NCCNc2ccnc(Nc3ccc(F)cc3)n2)c1	33.4
COc1cc(Nc2nccc(N3CCC(NC(=O)Nc4cccc(C(C)=O)c4)C3)n2)cc(OC)c1OC (configuration not stated)	100
Cc1ccc(-n2nc(C(C)(C)C)cc2NC(=O)Nc2ccc(OCCN3CCOCC3)c3ccccc23)cc1 [DORAMAPIMOD]	33.4
Cc1ccc(F)c(C(=O)Nc2cccc(-c3nn4ccccc4c3-c3ccnc(Nc4cccc(F)c4)n3)c2)c1F	0
COc1ccc(Nc2nccc(N3CCC(NS(=O)(=O)c4ccc(NC(C)=O)cc4)C3)n2)cc1 (configuration not stated)	33.4
Cc1ccc(NC(=O)c2cccc(C#N)c2)cc1-c1ccc(C(=O)Nc2ccncc2)cc1	73.4
CCn1c(-c2nonc2N)nc2cncc(Br)c21	33.4
COC(=O)Nc1nc2ccc(Oc3ccc(NC(=O)Nc4cc(F)ccc4F)cc3)cc2[nH]1	40
CC(C)c1cc(-c2ccc3c(N)n[nH]c3c2)nc(N)n1	0
O=c1cc(N2CCOCC2)nc2n(Cc3ccc(F)c(Cl)c3)ccn12	0
CCN1CCN(CCCC(=O)Nc2n[nH]c3nc(-c4ccc(O)cc4)c(Br)cc23)CC1	20
c1ccc(Oc2ccc(Nc3ccnc4cc(-c5ccc(CN6CCCCC6)o5)ccc34)cc2)nc1	20
COc1cc(Nc2ccnc3ccc(C(F)(F)F)cc23)cc(OC)c1OC	0
Fc1ccc(-c2nn3cccc(F)c3c2-c2ccncc2)cc1	0
NS(=O)(=O)c1cccc(N/C=C2\C(=O)Nc3ccc(S(=O)(=O)Cc4c(Cl)cccc4Cl)cc32)c1	33.4
O=C1NC(=O)C(c2ccccc2Cl)=C1Nc1cccc(Cl)c1	0

SMILES	MOTILITY REDUCTION/CYTOTOXICITY [%]
Fc1ccc(-c2ncn(CCCN3CCOCC3)c2-c2ccccn2)cc1	13.4
Cc1ccc(NC(=O)c2ccnc(N3CCCCC3)c2)cc1-c1ccc(C(=O)NCC2CC2)cc1	0
CN(C)c1ncnc2nc[nH]c12 [DIMETHYLADENINE]	0
Cc1ccc(NC(=O)c2ccnc(N3CCN(C)CC3)c2)cc1-c1ccc(C(=O)NCC2CC2)cc1	0
Nc1nccc(-c2c(-c3ccc(F)cc3)ncn2C2CCN(CC(F)(F)F)CC2)n1	0
COc1cccc(C2=C(Nc3ccc(Cl)c(C(=O)O)c3)C(=O)NC2=O)c1	0
c1ccc(-c2ccc3c(Nc4ccc5[nH]ccc5c4)ccnc3c2)nc1	33.4
Nc1n[nH]c2cnc(-c3ccccc3)cc12	0
Cc1ccc(NC(=O)c2ccc(Cl)cc2)cc1-c1ccc(C(=O)Nc2ccncc2)cc1	66.7
Fc1cccc(COc2ccc(Nc3ncnc4sc(-c5ccc[nH]5)cc34)cc2Cl)c1	100
O=c1cc(N2CCOCC2)nc2n(Cc3ccccc3F)ccn12	0
Fc1ccc(-c2ncn(C3CCNCC3)c2-c2ccnc(Oc3ccc(-c4ccccc4)cc3)n2)cc1	0
Cc1cccc(-c2nc(Nc3ccncc3)c3ccccc3n2)n1	0
Cn1cnc2c(N)ncnc21	0
O=C(Nc1n[nH]c2nc(-c3nccs3)c(Br)cc12)C1CCCC1	20
CCOc1nccc(-c2c(-c3ccc(F)cc3)ncn2C2CCNCC2)n1	0
Nc1ncnc2occ(-c3ccc4c(c3)CCN4C(=O)Cc3cc(F)ccc3F)c12	16.7
COc1ccc(Nc2nccc(NCCNC(=O)Nc3cc(C)ccc3C)n2)cc1	33.4
Oc1ccc(-c2[nH]c(-c3ccccc3)nc2-c2ccncc2)cc1	0
